Experimental data published in the supplement of paper PMC10307832.

How the values were obtained:
Assay in all cases: relative viability (nuclei count vs DMSO), 5 days (fraction); higher = more cells survive
ABC-1 = test system: ABC-1
Method in brief: (§1)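 The day after seeding in 1536-well plates, lung cancer cell lines were treated by pin tool with a single drug, or with a fixed anchor-drug dose together with five library-drug doses (not always all listed) in √10 steps. After 5 days, a combined fix-and-stain solution (final 0.05% Triton X-100, 1% formaldehyde, 1 ug/ml Hoechst) was added. Nuclei counted on 4× images gave relative viability as treated counts over vehicle counts, reported as the median of duplicate plates.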

HARA = test system: HARA
Method in brief: as §1

NCI-H322M = test system: NCI-H322M
Method in brief: as §1

HOP-62 = test system: HOP-62
Method in brief: as §1

NCI-H1993 = test system: NCI-H1993
Method in brief: as §1

NCI-H2170 = test system: NCI-H2170
Method in brief: as §1

NCI-H2009 = test system: NCI-H2009
Method in brief: as §1

NCI-H2228 = test system: NCI-H2228
Method in brief: as §1

EMC-BAC-2 = test system: EMC-BAC-2
Method in brief: as §1

NCI-H3122 = test system: NCI-H3122
Method in brief: as §1

SK-MES-1 = test system: SK-MES-1
Method in brief: as §1

LK-2 = test system: LK-2
Method in brief: as §1

SW 1573 = test system: SW 1573
Method in brief: as §1

NCI-H596 = test system: NCI-H596
Method in brief: as §1

NCI-H1944 = test system: NCI-H1944
Method in brief: as §1

LXF-289 = test system: LXF-289
Method in brief: as §1

A-427 = test system: A-427
Method in brief: as §1

NCI-H727 = test system: NCI-H727
Method in brief: as §1

PC-3 [JPC-3] = test system: PC-3 [JPC-3]
Method in brief: as §1

SW 900 = test system: SW 900
Method in brief: as §1

`COc1nc(C)cnc1NS(=O)(=O)c1cccnc1-c1ccc(-c2nnco2)cc1` [Zibotentan] + COc1cc2c(Oc3ccc(NC(=O)C4(C(=O)Nc5ccc(F)cc5)CC4)cc3F)ccnc2cc1OCCCN1CCOCC1 [Foretinib] (partner 0.25 µM) showed a relative viability (ABC-1; first compound 0.08 µM) of 0.9, a relative viability (ABC-1; first compound 0.253 µM) of 0.936 and a relative viability (ABC-1; first compound 0.8 µM) of 1.06. The relative viability (ABC-1; first compound 2.53 µM) was 1.16, the relative viability (HARA; first compound 0.08 µM) was 1 and the relative viability (HARA; first compound 0.253 µM) was 0.743. For the same molecule, the relative viability (HARA; first compound 0.8 µM) was 0.883, the relative viability (HARA; first compound 2.53 µM) was 0.874 and the relative viability (NCI-H322M; first compound 0.08 µM) was 1.03. The relative viability (NCI-H322M; first compound 0.253 µM) was 0.782, the relative viability (NCI-H322M; first compound 0.8 µM) was 0.98 and the relative viability (NCI-H322M; first compound 2.53 µM) was 1.02. The relative viability (HOP-62; first compound 0.08 µM) was 1.06, the relative viability (HOP-62; first compound 0.253 µM) was 1.06 and the relative viability (HOP-62; first compound 0.8 µM) was 1.21. It also gave a relative viability (HOP-62; first compound 2.53 µM) of 1.07, a relative viability (NCI-H1993; first compound 0.08 µM) of 0.753 and a relative viability (NCI-H1993; first compound 0.253 µM) of 0.811. The relative viability (NCI-H1993; first compound 0.8 µM) was 0.702, the relative viability (NCI-H1993; first compound 2.53 µM) was 0.832 and the relative viability (NCI-H2170; first compound 0.08 µM) was 1.05. For the same molecule, the relative viability (NCI-H2170; first compound 0.253 µM) was 1.07, the relative viability (NCI-H2170; first compound 0.8 µM) was 1.03 and the relative viability (NCI-H2170; first compound 2.53 µM) was 0.969. The relative viability (NCI-H2009; first compound 0.08 µM) was 1.25, the relative viability (NCI-H2009; first compound 0.253 µM) was 1.24 and the relative viability (NCI-H2009; first compound 0.8 µM) was 1.28. For the same molecule, the relative viability (NCI-H2009; first compound 2.53 µM) was 1.35, the relative viability (NCI-H2228; first compound 0.08 µM) was 0.714 and the relative viability (NCI-H2228; first compound 0.253 µM) was 0.819. The relative viability (NCI-H2228; first compound 0.8 µM) was 0.889, the relative viability (NCI-H2228; first compound 2.53 µM) was 0.801 and the relative viability (EMC-BAC-2; first compound 0.08 µM) was 1.07. The relative viability (EMC-BAC-2; first compound 0.8 µM) was 1.05, the relative viability (EMC-BAC-2; first compound 2.53 µM) was 1.05 and the relative viability (NCI-H3122; first compound 0.08 µM) was 1.02. The relative viability (NCI-H3122; first compound 0.253 µM) was 0.975, the relative viability (NCI-H3122; first compound 0.8 µM) was 0.983 and the relative viability (NCI-H3122; first compound 2.53 µM) was 1.02. The relative viability (SK-MES-1; first compound 0.08 µM) was 0.974, the relative viability (SK-MES-1; first compound 0.253 µM) was 0.886 and the relative viability (SK-MES-1; first compound 0.8 µM) was 0.974. For the same molecule, the relative viability (SK-MES-1; first compound 2.53 µM) was 1.02, the relative viability (LK-2; first compound 0.08 µM) was 1.37 and the relative viability (LK-2; first compound 0.253 µM) was 1.31. For the same molecule, the relative viability (LK-2; first compound 0.8 µM) was 0.895, the relative viability (LK-2; first compound 2.53 µM) was 1.17 and the relative viability (SW 1573; first compound 0.08 µM) was 0.966. The relative viability (SW 1573; first compound 0.253 µM) was 0.692, the relative viability (SW 1573; first compound 0.8 µM) was 0.983 and the relative viability (SW 1573; first compound 2.53 µM) was 0.82. For the same molecule, the relative viability (NCI-H596; first compound 0.08 µM) was 0.899, the relative viability (NCI-H596; first compound 0.253 µM) was 0.794 and the relative viability (NCI-H596; first compound 0.8 µM) was 0.768. It also gave a relative viability (NCI-H596; first compound 2.53 µM) of 0.914, a relative viability (NCI-H1944; first compound 0.08 µM) of 1.02 and a relative viability (NCI-H1944; first compound 0.253 µM) of 0.806. For the same molecule, the relative viability (NCI-H1944; first compound 0.8 µM) was 0.898, the relative viability (NCI-H1944; first compound 2.53 µM) was 0.908 and the relative viability (LXF-289; first compound 0.08 µM) was 0.965. For the same molecule, the relative viability (LXF-289; first compound 0.253 µM) was 0.95, the relative viability (LXF-289; first compound 0.8 µM) was 1.05 and the relative viability (LXF-289; first compound 2.53 µM) was 0.954. It also gave a relative viability (A-427; first compound 0.08 µM) of 1.14, a relative viability (A-427; first compound 0.253 µM) of 1.1 and a relative viability (A-427; first compound 0.8 µM) of 1.1. It also gave a relative viability (A-427; first compound 2.53 µM) of 1.19, a relative viability (NCI-H727; first compound 0.08 µM) of 1.07 and a relative viability (NCI-H727; first compound 0.253 µM) of 0.862. It also gave a relative viability (NCI-H727; first compound 0.8 µM) of 0.893, a relative viability (NCI-H727; first compound 2.53 µM) of 0.811 and a relative viability (PC-3 [JPC-3]; first compound 0.08 µM) of 1.05. The relative viability (PC-3 [JPC-3]; first compound 0.253 µM) was 1.05, the relative viability (PC-3 [JPC-3]; first compound 0.8 µM) was 1.03 and the relative viability (PC-3 [JPC-3]; first compound 2.53 µM) was 0.973. It also gave a relative viability (SW 900; first compound 0.08 µM) of 0.997, a relative viability (SW 900; first compound 0.253 µM) of 0.811 and a relative viability (SW 900; first compound 0.8 µM) of 0.887. For the same molecule, the relative viability (SW 900; first compound 2.53 µM) was 0.857.
